Values after ≈ are worked out from the molar mass of the structure shown. Active and inactive are the calls of the source. The rule behind the calls is not given here.
Assays:
[1] = molecular target: T1, ATP-dependent Clp protease proteolytic subunit (Staphylococcus aureus (strain NCTC 8325), UniProt Q2G036); test: Agonist activity at Staphylococcus aureus ClpP extracted from Escherichia coli BL21 (DE3) cells using alpha-casein as substrate assessed as substrate hydrolysis preincubated for 15 mins followed by substrate addition and measured after 2 hrs by SDS-PAGE analysis
T1 sequence (Q2G036 whole entry): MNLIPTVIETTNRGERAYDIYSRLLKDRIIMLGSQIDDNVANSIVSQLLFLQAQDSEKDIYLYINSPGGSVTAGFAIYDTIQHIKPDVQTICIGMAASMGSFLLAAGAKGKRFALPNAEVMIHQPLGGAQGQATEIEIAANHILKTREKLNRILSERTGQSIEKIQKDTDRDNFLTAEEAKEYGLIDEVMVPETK

[2] = system: Staphylococcus aureus; test: microbe, parasite or virus in culture; assay type: functional; details: Newman, time 18 hrs
Description: Antibacterial activity against Staphylococcus aureus Newman assessed as inhibition of visible growth of bacteria incubated for 18 hrs by absorbance based analysis

[3] = Therapeutic index, ratio of IC50 for HEK293T/17 cells to MIC for Staphylococcus aureus Newman; assay type: toxicity, cell-based; details: human, read-out: TI
[4] = molecular target: T1, ATP-dependent Clp protease proteolytic subunit; test: Agonist activity at Staphylococcus aureus ClpP extracted from Escherichia coli BL21 (DE3) cells using FITC-casein as substrate assessed as substrate hydrolysis preincubated for 60 mins followed by substrate addition and measured after 1 hrs by fluorescence based analysis
[5] = molecular target: T2, ATP-dependent Clp protease proteolytic subunit (Staphylococcus aureus (strain NCTC 8325)) (UniProt Q2G036); test: Potency index, ratio of ONC212 EC50 to test compound EC50 for agonist activity at Staphylococcus aureus ClpP extracted from Escherichia coli BL21 (DE3) cells using FITC-casein as substrate assessed as substrate hydrolysis preincubated for 60 mins followed by substrate addition and measured after 1 hrs by fluorescence based analysis; details: time 120.0 min
T2 sequence (whole entry): T1 sequence (Q2G036 whole entry)

[6] = molecular target: T2, ATP-dependent Clp protease proteolytic subunit (Staphylococcus aureus (strain NCTC 8325)); test: Agonist activity at Staphylococcus aureus ClpP extracted from Escherichia coli BL21 (DE3) cells assessed as induction of ClpP-mediated staphylococcus aureus FtsZ degradation preincubated for 15 mins followed by FtsZ addition by SDS-PAGE analysis; details: filed as agonist, time <= 105.0 min
[7] = Agonist activity at Lactobacillus acidophilus ClpP using alpha-casein as substrate assessed as substrate hydrolysis preincubated for 15 mins followed by substrate addition and measured after 2 hrs by SDS-PAGE analysis
[8] = molecular target: T2, ATP-dependent Clp protease proteolytic subunit (Staphylococcus aureus (strain NCTC 8325)); test: Induction of thermal stabilization of Staphylococcus aureus ClpP extracted from Escherichia coli BL21 (DE3) cells assessed as change in melting temperature at 10 uM incubated for 10 mins by DSF analysis
[9] = molecular target: T2, ATP-dependent Clp protease proteolytic subunit (Staphylococcus aureus (strain NCTC 8325)); test: Induction of thermal stabilization of CLpP in Staphylococcus aureus Newman at 10 times of MIC preincubated for 2 hrs followed by compound washout and incubated under 57.3 to 74.5 degreeC for 3 mins by CETSA
[10] = molecular target: ATP-dependent Clp protease proteolytic subunit, mitochondrial (Homo sapiens, UniProt Q16740); test: Induction of thermal stabilization of CLpP in HEK293T/17 at 10 times of MIC preincubated for 2 hrs followed by compound washout and incubated under 57.3 to 74.5 degreeC for 3 mins by CETSA; assay type: cell-based
[11] = system: Staphylococcus aureus; test: Antibacterial activity against Staphylococcus aureus 8325-4 harboring ClpP mutant assessed as inhibition of visible growth of bacteria incubated for 18 hrs by absorbance based assay; assay type: functional
[12] = system: Staphylococcus aureus; test: Antibacterial activity against CLpP overexpressing Staphylococcus aureus 8325-4 assessed as inhibition of visible growth of bacteria incubated for 18 hrs by absorbance based assay; assay type: functional, organism-based
[13] = system: Staphylococcus aureus; test: microbe, parasite or virus in culture; assay type: functional; details: USA300, time 18 hrs
Description: Antibacterial activity against methicillin-resistant Staphylococcus aureus USA300 assessed as inhibition of visible growth of bacteria incubated for 18 hrs by absorbance based analysis

[14] = system: Staphylococcus aureus; test: microbe, parasite or virus in culture; assay type: functional; details: NRS-70, time 18 hrs
Description: Antibacterial activity against methicillin-resistant Staphylococcus aureus NRS-70 assessed as inhibition of visible growth of bacteria incubated for 18 hrs by absorbance based analysis

[15] = system: Staphylococcus aureus; test: microbe, parasite or virus in culture; assay type: functional; details: time 18 hrs
Description: Antibacterial activity against multidrug-resistant Staphylococcus aureus clinical isolate XJ009 assessed as inhibition of visible growth of bacteria incubated for 18 hrs by absorbance based analysis

[16] = system: Staphylococcus aureus; test: microbe, parasite or virus in culture; assay type: functional; details: time 18 hrs; remark: listed apart in the source
Description: Antibacterial activity against multidrug-resistant Staphylococcus aureus clinical isolate XJ025 assessed as inhibition of visible growth of bacteria incubated for 18 hrs by absorbance based analysis

[17] = system: Staphylococcus aureus; test: microbe, parasite or virus in culture; assay type: functional; details: time 18 hrs; remark: listed apart in the source
Description: Antibacterial activity against multidrug-resistant Staphylococcus aureus clinical isolate XJ049 assessed as inhibition of visible growth of bacteria incubated for 18 hrs by absorbance based analysis

[18] = system: Staphylococcus aureus; test: microbe, parasite or virus in culture; assay type: functional; details: time 18 hrs; remark: listed apart in the source
Description: Antibacterial activity against multidrug-resistant Staphylococcus aureus clinical isolate XJ051 assessed as inhibition of visible growth of bacteria incubated for 18 hrs by absorbance based analysis

[19] = system: Staphylococcus aureus; test: Antibacterial activity against Staphylococcus aureus USA300 infected in Zebrafish infection model assessed as increase in zebrafish survival at 5 mg/kg pre-infected for 1 hrs followed by compound addition and measured after 5 days; assay type: functional, organism-based; details: time 5.0 day
[20] = system: Staphylococcus aureus; test: Antibacterial activity against Staphylococcus aureus USA300 infected in Zebrafish infection model assessed as increase in zebrafish survival at 25 mg/kg pre-infected for 1 hrs followed by compound addition and measured after 5 days; assay type: functional, organism-based; details: time 5.0 day
[21] = system: Staphylococcus aureus; test: Antibacterial activity against Staphylococcus aureus USA300 infected in Zebrafish infection model assessed as increase in zebrafish survival at 0.5 mg/kg pre-infected for 1 hrs followed by compound addition and measured after 5 days; assay type: functional, organism-based; details: time 5.0 day
[22] = system: Staphylococcus aureus; test: Antibacterial activity against Staphylococcus aureus USA300 infected in female ICR mouse peritonitis model assessed as increase in mouse survival at 25 to 100 mg/kg, ip pre-infected for 1 hrs followed by compound addition and measured after 5 days relative to control; assay type: functional; details: dose 25-100 mg/kg, time 5 day
[23] = system: Staphylococcus aureus; test: Antibacterial activity against Staphylococcus aureus USA300 infected in female ICR mouse peritonitis model assessed as reduction in bacterial load in heart at 25 to 100 mg/kg, ip pre-infected for 1 hrs followed by compound addition and measured after 5 days relative to control; assay type: functional; details: dose 25-100 mg/kg, time 5 day
[24] = system: Staphylococcus aureus; test: Antibacterial activity against Staphylococcus aureus USA300 infected in female ICR mouse peritonitis model assessed as reduction in bacterial load in liver at 25 to 100 mg/kg, ip pre-infected for 1 hrs followed by compound addition and measured after 5 days relative to control; assay type: functional; details: dose 25-100 mg/kg, time 5 day
[25] = system: Staphylococcus aureus; test: Antibacterial activity against Staphylococcus aureus USA300 infected in female ICR mouse peritonitis model assessed as reduction in bacterial load in spleen at 25 to 100 mg/kg, ip pre-infected for 1 hrs followed by compound addition and measured after 5 days relative to control; assay type: functional; details: dose 25-100 mg/kg, time 5 day
[26] = system: Staphylococcus aureus; test: Antibacterial activity against Staphylococcus aureus USA300 infected in female ICR mouse peritonitis model assessed as reduction in bacterial load in lung at 25 to 100 mg/kg, ip pre-infected for 1 hrs followed by compound addition and measured after 5 days relative to control; assay type: functional; details: dose 25-100 mg/kg, time 5 day
[27] = system: Staphylococcus aureus; test: Antibacterial activity against Staphylococcus aureus USA300 infected in female ICR mouse peritonitis model assessed as reduction in bacterial load in kidney at 25 to 100 mg/kg, ip pre-infected for 1 hrs followed by compound addition and measured after 5 days relative to control; assay type: functional; details: dose 25-100 mg/kg, time 5 day
[28] = system: Staphylococcus aureus; test: Antibacterial activity against Staphylococcus aureus USA300 infected in female ICR mouse peritonitis model assessed as reduction in bacterial load in peritoneal fluid at 25 to 100 mg/kg, ip pre-infected for 1 hrs followed by compound addition and measured after 5 days relative to control; assay type: functional; details: dose 25-100 mg/kg, time 5 day
[29] = system: Staphylococcus aureus; test: Antibacterial activity against oxacillin-resistant Staphylococcus aureus clinical isolate XJ049 infected in female ICR mouse peritonitis model assessed as mouse survival at 50 mg/kg, ip pre-infected for 1 hrs followed by compound addition and measured after 5 days relative to control; assay type: functional; details: 120 h, time 5 day
[30] = Toxicity in female ICR mouse model of peritonitis infected with Staphylococcus aureus USA300 assessed as effect on body weight at 50 mg/kg, ip pre-infected for 1 hrs followed by compound addition and measured after 5 days; assay type: organism-based; details: in vivo, 120 h, time 5 day

Chain of ATP-dependent Clp protease proteolytic subunit, mitochondrial (Q16740 whole entry): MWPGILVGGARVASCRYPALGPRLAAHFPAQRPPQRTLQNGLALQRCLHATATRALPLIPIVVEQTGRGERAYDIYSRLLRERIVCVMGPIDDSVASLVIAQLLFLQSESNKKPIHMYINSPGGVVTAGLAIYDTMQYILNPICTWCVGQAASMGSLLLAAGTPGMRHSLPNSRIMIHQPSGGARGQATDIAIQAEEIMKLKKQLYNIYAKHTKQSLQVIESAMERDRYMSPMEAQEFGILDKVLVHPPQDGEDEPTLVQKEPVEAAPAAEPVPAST

Q: Which EC50 [1] does the source give for `CC[C@H](C)[C@H]1C(=O)N(Cc2ccc(OC)c3ccccc23)C[C@@H]2N(C(=O)NCCCC(F)(F)F)CCC(=O)N12` here?
A: 1100 nM

Q: What about the MIC [2] of the same compound?
A: 0.063 µg/mL (≈ 0.115 µM)

Q: What about the selectivity ratio [3] of the same compound?
A: 190

Q: What about the EC50 [4] of the same compound?
A: 330 nM

Q: What about the Ratio EC50 [5] of the same compound?
A: 2.2

Q: And the Activity [6]?
A: Time-dependent-effect

Q: And the EC50 [7]?
A: > 100000 nM

Q: What about the ΔTm [8] of the same compound?
A: 22.8 °C

Q: And the Activity [9]?
A: Active

Q: What about the Activity [10] of the same compound?
A: Active; Minimal Effect On Thermal Stability Observed

Q: And the MIC [11]?
A: > 128 µg/mL

Q: And the Activity [12]?
A: Active

Q: What about the MIC [13] of the same compound?
A: 0.06 µg/mL (≈ 0.109 µM)

Q: And the MIC [14]?
A: 0.06 µg/mL (≈ 0.109 µM)

Q: What about the MIC [15] of the same compound?
A: 0.06 µg/mL (≈ 0.109 µM)

Q: And the MIC [16]?
A: 0.13 µg/mL (≈ 0.237 µM)

Q: What about the MIC [17] of the same compound?
A: 0.13 µg/mL (≈ 0.237 µM)

Q: And the MIC [18]?
A: 0.03 µg/mL (≈ 0.0547 µM)

Q: What about the Activity [19] of the same compound?
A: Active; Comparable To 25 Mg/Kg Of (R)-Zg197

Q: And the Activity [20]?
A: Active

Q: What about the Activity [21] of the same compound?
A: Active; Significant Improvement Observed Compared To 0.5 Mg/Kg Of Vancomycin

Q: And the Activity [22]?
A: 89%

Q: And the Activity [23]?
A: 2 log10CFU/g

Q: What about the Activity [24] of the same compound?
A: 2 log10CFU/g

Q: And the Activity [25]?
A: 2 log10CFU/g

Q: And the Activity [26]?
A: 2 log10CFU/g

Q: And the Activity [27]?
A: 2 log10CFU/g

Q: What about the Activity [28] of the same compound?
A: 2 log10CFU/g

Q: And the survival at 50 mg/kg [29]?
A: 100%

Q: What about the Activity [30] of the same compound?
A: Non-toxic
